Measured values from US11180497B2 (ANGEX PHARMACEUTICAL, INC., priority 2017, dated 2021).

Each molecule was assayed against T1, Human IDO (Homo sapiens, UniProt P14902) (assay: HeLa cell IDO assay (IFNγ-treated cells, N-formylkynurenine by RapidFire/MS/MS)). Conditions: 25 ng/ml IFNγ, 200 μM Trp, 48 hours, class symbol.
T1 construct: High control is Hela cells with IFNγ treatment; endogenous in cells; host or cells: HeLa cells treated with 25 ng/ml IFNγ
Type: cell-based

T1 sequence (P14902 whole entry): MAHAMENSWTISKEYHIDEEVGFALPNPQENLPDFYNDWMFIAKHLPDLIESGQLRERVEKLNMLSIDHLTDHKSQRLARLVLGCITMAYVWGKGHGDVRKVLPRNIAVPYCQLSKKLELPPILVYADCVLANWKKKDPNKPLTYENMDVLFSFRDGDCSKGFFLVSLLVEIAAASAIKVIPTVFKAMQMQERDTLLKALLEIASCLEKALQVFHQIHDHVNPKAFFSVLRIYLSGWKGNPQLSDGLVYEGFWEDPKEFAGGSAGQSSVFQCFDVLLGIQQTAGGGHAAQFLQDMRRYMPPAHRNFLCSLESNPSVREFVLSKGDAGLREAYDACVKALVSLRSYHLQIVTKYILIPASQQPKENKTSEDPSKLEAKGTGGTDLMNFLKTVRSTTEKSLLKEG

IC50 [nM] | SMILES
< 100 | O=C(Nc1ccc(Cl)c(F)c1)[C@H]1C[C@]12CC[C@H](c1ccnc3ccc(F)cc31)CC2 [Compound 1-19]
< 100 | O=C(Nc1ccc(F)cc1)[C@H]1C[C@]12CC[C@H](c1ccnc3ccc(F)cc31)CC2 [Compound 1-12]
100 to 1000 | COc1ccc2ncnc([C@H]3CC[C@@]4(CC3)C[C@@H]4C(=O)Nc3ccc(Cl)cc3)c2c1 [Compound 8-4E]
< 100 | O=C(Nc1ccc(Cl)cc1F)[C@H]1C[C@]12CC[C@H](c1ccnc3ccc(F)cc31)CC2 [Compound 2-5]
< 100 | O=C(NC1CC2(CCN(c3ccnc4ccc(F)cc34)CC2)C1)c1ccc(Cl)cc1 [Compound 18-5, 4-chloro-N-(7-(6-fluoroquinolin-4-yl)-7-azaspiro[3.5]nonan-2-yl)benzamide]
100 to 1000 | N#Cc1ccc(NC(=O)[C@H]2C[C@]23CC[C@H](c2ccnc4ccc(F)cc42)CC3)nc1 [Compound 3-3]
> 1000 | O=C(Nc1ccc(Cl)cc1)C1CC12CCC(c1ccnc3ccncc13)CC2 (single isomer, unassigned) [Compound 7-7, N-(4-chlorophenyl)-6-(1,6-naphthyridin-4-yl)spiro[2.5]octane-1-carboxamide]
100 to 1000 | O=C(Nc1ccc(C2CC2)cc1)[C@H]1C[C@]12CC[C@H](c1ccnc3ccc(F)cc31)CC2 [Compound 1-13]
> 1000 | O=C(NC1CC12CCC(c1ccnc3ccc(F)cc13)CC2)c1ccc(Cl)cc1 (single isomer, unassigned) [Compound 9-5, 4-chloro-N-(6-(6-fluoroquinolin-4-yl)spiro[2.5]octan-1-yl)benzamide]
< 100 | O=C(Nc1ccc(I)cc1F)[C@H]1C[C@]12CC[C@H](c1ccnc3ccc(F)cc31)CC2 (single isomer, unassigned) [Compound 4-9]
< 100 | O=C(Nc1ccc(F)cn1)[C@H]1C[C@]12CC[C@H](c1ccnc3ccc(F)cc31)CC2 [Compound 2-6]
< 100 | O=C(Nc1ccc(Cl)nc1)[C@H]1C[C@]12CC[C@H](c1ccnc3ccc(F)cc31)CC2 [Compound 1-23]
< 100 | O=C(Nc1ccc(Br)cc1)[C@H]1C[C@]12CC[C@H](c1ccnc3ccc(F)cc31)CC2 (single isomer, unassigned) [Compound 4-4]
100 to 1000 | O=C(N[C@H]1CC2(CC[C@H](c3ccnc4ccc(F)cc43)CC2)C1)c1ccncc1 (some centres unmarked) [Compound 17-9]
< 100 | O=C(Nc1ccc(Cl)cc1)[C@H]1C[C@]12CC[C@H](c1ccnc3ccc(Cl)cc31)CC2 [Compound 8-4A]
< 100 | N#Cc1ccc(NC(=O)[C@H]2C[C@]23CC[C@H](c2ccnc4ccc(F)cc42)CC3)cc1 (single isomer, unassigned) [Compound 4-6]
> 1000 | O=C(NN1CCCCC1)[C@H]1C[C@]12CC[C@H](c1ccnc3ccc(F)cc31)CC2 [Compound 1-18]
< 100 | O=C(Nc1ccc(I)cc1)[C@H]1C[C@]12CC[C@H](c1ccnc3ccc(F)cc31)CC2 (single isomer, unassigned) [Compound 4-5]
100 to 1000 | O=C(NC1(C2CCN(c3ccnc4ccc(F)cc34)CC2)CC1)c1ccc(Cl)cc1 [Compound 27-3, 4-chloro-N-[1-[1-(6-fluoroquinolin-4-yl)piperidin-4-yl]cyclopropyl]benzamide]
< 100 | O=C(NC1CC2(CCC(c3ccnc4ccc(F)cc34)CC2)C1)c1ccc(Cl)cc1 (single isomer, unassigned) [Compound 17-6, 4-chloro-N-(7-(6-fluoroquinolin-4-yl)spiro[3.5]nonan-2-yl)benzamide]
100 to 1000 | O=C(Nc1ccc(Cl)cc1)C1CC12CCC(c1ccnc3ccc(F)cc13)CC2 (centres unmarked) [Compound 5-4, N-(4-chlorophenyl)-6-(6-fluoroquinolin-4-yl)spiro[2.5]octane-1-carboxamide]
< 100 | N#Cc1ccc2nccc([C@H]3CC[C@@]4(CC3)C[C@@H]4C(=O)Nc3ccc(Cl)cc3)c2c1 [Compound 8-4B]
100 to 1000 | O=C(Nc1ccc(Cl)cc1)C1CC2(CCN(c3ccnc4ccc(F)cc34)CC2)C1 [Compound 19-3, N-(4-chlorophenyl)-7-(6-fluoroquinolin-4-yl)-7-azaspiro[3.5]nonane-2-carboxamide]
< 100 | O=C(Nc1ccc(Cl)cc1)C1(C2CCC(c3ccnc4ccncc34)CC2)CC1 (centres unmarked) [Compound 28-5, 1-(4-(1,6-naphthyridin-4-yl)cyclohexyl)-N-(4-chlorophenyl)cyclopropane-1-carboxamide]
< 100 | O=C(Nc1ccc(Cl)cc1)C1CC12CCC(c1ccnc3ccc(F)cc13)CC2 (centres unmarked) [Compound 1-9, N-(4-chlorophenyl)-6-(6-fluoroquinolin-4-yl)spiro[2.5]octane-1-carboxamide]

IC50 [nM] | SMILES
< 100 | O=C(Nc1ccc(Br)cc1F)[C@H]1C[C@]12CC[C@H](c1ccnc3ccc(F)cc31)CC2 (single isomer, unassigned) [Compound 4-8]
100 to 1000 | O=C(Nc1ccc(C(F)(F)F)cc1)[C@H]1C[C@]12CC[C@H](c1ccnc3ccc(F)cc31)CC2 [Compound 2-4]
> 1000 | O=C(Nc1ccc(Cl)cc1)C1CC12CCC(c1ccnc3ccc(F)cc13)CC2 (single isomer, unassigned) [Compound 1-11, N-(4-chlorophenyl)-6-(6-fluoroquinolin-4-yl)spiro[2.5]octane-1-carboxamide]
< 100 | O=C(Nc1ccc(Cl)cc1)C1(C2CCC(c3ccnc4ccncc34)CC2)CC1 (mixture of isomers) [Compound 29-6, 1-(4-(1,6-naphthyridin-4-yl)cyclohexyl)-N-(4-chlorophenyl) cyclopropane-1-carboxamide]
< 100 | O=C(Nc1ccc(Cl)cc1)C1CC12CCN(c1ccnc3ccc(F)cc13)CC2 (single isomer, unassigned) [Compound 12-6, N-(4-chlorophenyl)-6-(6-fluoroquinolin-4-yl)-6-azaspiro[2.5]octane-1-carboxamide]
< 100 | O=C(Nc1ccc(Cl)cc1)C1([C@H]2CC[C@H](c3ccnc4ccc(F)cc43)CC2)CC1 [Compound 24-5B, N-(4-chlorophenyl)-1-(4-(6-fluoroquinolin-4-yl)cyclohexyl)cyclopropyl-1-carboxamide]
100 to 1000 | COc1ccc2nccc([C@H]3CC[C@@]4(CC3)C[C@@H]4C(=O)Nc3ccc(Cl)cc3)c2c1 [Compound 8-4D]
> 1000 | O=C(NC1CC2(CCN(c3ccnc4ccncc34)CC2)C1)c1ccc(Cl)cc1 [Compound 22-5, N-(7-(1,6-naphthyridin-4-yl)-7-azaspiro[3.5]nonan-2-yl)-4-chlorobenzamide]
100 to 1000 | O=C(Nc1ccc(Cl)cc1)C1(F)CC12CCC(c1ccnc3ccc(F)cc13)CC2 (centres unmarked) [Compound 10-4, N-(4-chlorophenyl)-1-fluoro-6-(6-fluoroquinolin-4-yl)spiro[2.5]octane-1-carboxamide]
< 100 | O=C(Nc1ccc(Cl)cc1)C1CC12CCC(c1ccnc3ccc(F)cc13)CC2 (single isomer, unassigned) [Compound 1-10, N-(4-chlorophenyl)-6-(6-fluoroquinolin-4-yl)spiro[2.5]octane-1-carboxamide]
> 1000 | O=C(N[C@H]1CC2(CC[C@H](c3ccnc4ccncc43)CC2)C1)c1ccc(Cl)cc1 (single isomer, unassigned) [Compound 21-5]
100 to 1000 | O=C(Nc1ccccc1F)[C@H]1C[C@]12CC[C@H](c1ccnc3ccc(F)cc31)CC2 [Compound 1-16]
100 to 1000 | O=C(Nc1ccc(-n2cccn2)cc1)[C@H]1C[C@]12CC[C@H](c1ccnc3ccc(F)cc31)CC2 [Compound 1-22]
< 100 | CC1(C(=O)Nc2ccc(Cl)cc2)CC12CCC(c1ccnc3ccc(F)cc13)CC2 (single isomer, unassigned) [Compound 11-6, N-(4-chlorophenyl)-6-(6-fluoroquinolin-4-yl)-1-methylspiro[2.5]octane-1-carboxamide]
> 1000 | O=C(Nc1ccccc1Cl)[C@H]1C[C@]12CC[C@H](c1ccnc3ccc(F)cc31)CC2 [Compound 2-2]
> 1000 | O=C(Nc1ccc(C(F)(F)F)cn1)[C@H]1C[C@]12CC[C@H](c1ccnc3ccc(F)cc31)CC2 (stereo in doubt) [Compound 3-2, 6-(6-fluoroquinolin-4-yl)-N-(5-(trifluoromethyl)pyridin-2-yl)spiro[2.5]octane-1-carboxamide]
> 1000 | O=C(NCc1ccc(Cl)cc1)[C@H]1C[C@]12CC[C@H](c1ccnc3ccc(F)cc31)CC2 [Compound 1-21]
< 100 | O=C(Nc1ccc(Cl)cc1)C1CC2(CCC(c3ccnc4ccc(F)cc34)CC2)C1 (single isomer, unassigned) [Compound 16-7, N-(4-chlorophenyl)-7-(6-fluoroquinolin-4-yl)spiro[3.5]nonane-2-carboxamide]
< 100 | O=C(Nc1ccc(Cl)cc1F)[C@H]1C[C@]12CC[C@H](c1ccnc3ccc(F)cc31)CC2 (single isomer, unassigned) [Compound 4-7]
< 100 | COc1cc2nccc([C@H]3CC[C@@]4(CC3)C[C@@H]4C(=O)Nc3ccc(Cl)cc3)c2cn1 [Compound 8-4F]
< 100 | N#Cc1ccc(C(=O)N[C@H]2CC3(CC[C@H](c4ccnc5ccc(F)cc54)CC3)C2)cc1 (some centres unmarked) [Compound 17-8]
100 to 1000 | O=C(Nc1cccc(Cl)c1)[C@H]1C[C@]12CC[C@H](c1ccnc3ccc(F)cc31)CC2 [Compound 1-15]
> 1000 | O=C(Nc1ccc(Cl)cc1)C1CCC12CCC(c1ccnc3ccc(F)cc13)CC2 (centres unmarked) [Compound 15-3, N-(4-chlorophenyl)-7-(6-fluoroquinolin-4-yl)spiro[3.5]nonane-1-carboxamide]
> 1000 | O=C(Nc1ccc(Cl)cc1)C1CC2(CCC(c3ccnc4ccncc34)CC2)C1 (single isomer, unassigned) [Compound 20-9, N-(4-chlorophenyl)-7-(1,6-naphthyridin-4-yl)spiro[3.5]nonane-2-carboxamide]
100 to 1000 | O=C(Nc1ccc(Cl)cn1)[C@H]1C[C@]12CC[C@H](c1ccnc3ccc(F)cc31)CC2 [Compound 2-3]
